The target in assay [1] is Putative nucleoside diphosphate kinase (Homo sapiens, UniProt O60361).
The next assay concerns the target Actin-related protein 3 (Homo sapiens, UniProt P61158).
For assay [2], the target named is T1, General transcription and DNA repair factor IIH helicase subunit XPD (Homo sapiens, UniProt P18074).
T1 sequence (P18074 whole entry): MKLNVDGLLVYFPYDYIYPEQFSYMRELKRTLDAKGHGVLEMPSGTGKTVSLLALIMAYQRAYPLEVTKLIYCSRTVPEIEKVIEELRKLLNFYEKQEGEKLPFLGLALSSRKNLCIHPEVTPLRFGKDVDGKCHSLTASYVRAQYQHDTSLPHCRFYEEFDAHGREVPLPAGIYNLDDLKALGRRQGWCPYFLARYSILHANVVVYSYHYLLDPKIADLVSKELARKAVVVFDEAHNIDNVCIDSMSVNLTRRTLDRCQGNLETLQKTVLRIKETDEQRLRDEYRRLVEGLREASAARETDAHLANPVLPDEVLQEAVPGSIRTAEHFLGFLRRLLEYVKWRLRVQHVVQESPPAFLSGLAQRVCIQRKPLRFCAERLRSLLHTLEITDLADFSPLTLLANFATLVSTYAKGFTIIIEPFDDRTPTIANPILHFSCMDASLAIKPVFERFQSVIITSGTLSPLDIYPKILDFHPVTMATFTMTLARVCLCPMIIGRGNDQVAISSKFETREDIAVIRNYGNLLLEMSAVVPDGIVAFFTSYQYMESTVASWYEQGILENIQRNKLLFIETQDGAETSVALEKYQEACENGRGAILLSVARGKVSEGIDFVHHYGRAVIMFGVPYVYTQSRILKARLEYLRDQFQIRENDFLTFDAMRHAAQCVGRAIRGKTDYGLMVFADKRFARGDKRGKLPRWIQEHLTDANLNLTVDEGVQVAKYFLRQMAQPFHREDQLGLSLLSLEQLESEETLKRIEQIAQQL

Assay [3] concerns the target 5'-AMP-activated protein kinase subunit gamma-1 (Homo sapiens, UniProt P54619).
In assay [4] the target is 5'-AMP-activated protein kinase subunit gamma-2 (Homo sapiens, UniProt Q9UGJ0).
Chain of 5'-AMP-activated protein kinase subunit gamma-2 (Q9UGJ0 whole entry): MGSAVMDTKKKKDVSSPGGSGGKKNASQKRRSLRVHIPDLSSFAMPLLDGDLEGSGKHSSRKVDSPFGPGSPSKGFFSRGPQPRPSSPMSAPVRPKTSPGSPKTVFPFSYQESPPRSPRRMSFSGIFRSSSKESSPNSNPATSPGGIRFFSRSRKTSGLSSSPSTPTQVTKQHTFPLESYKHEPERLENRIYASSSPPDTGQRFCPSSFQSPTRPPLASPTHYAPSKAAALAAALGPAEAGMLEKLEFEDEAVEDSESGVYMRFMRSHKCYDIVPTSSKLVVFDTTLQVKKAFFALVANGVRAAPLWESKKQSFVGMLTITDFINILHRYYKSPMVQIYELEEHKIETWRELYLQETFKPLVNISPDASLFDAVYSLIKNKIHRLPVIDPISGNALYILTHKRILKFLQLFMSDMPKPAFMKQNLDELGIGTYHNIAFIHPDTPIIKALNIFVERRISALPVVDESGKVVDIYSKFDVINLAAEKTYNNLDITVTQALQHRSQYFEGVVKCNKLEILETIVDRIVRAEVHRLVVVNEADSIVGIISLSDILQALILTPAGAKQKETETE
Assay [5] has as its target T2, Uncharacterized protein FLJ45252 (Homo sapiens, UniProt Q6ZSR9).
T2 sequence (Q6ZSR9 whole entry): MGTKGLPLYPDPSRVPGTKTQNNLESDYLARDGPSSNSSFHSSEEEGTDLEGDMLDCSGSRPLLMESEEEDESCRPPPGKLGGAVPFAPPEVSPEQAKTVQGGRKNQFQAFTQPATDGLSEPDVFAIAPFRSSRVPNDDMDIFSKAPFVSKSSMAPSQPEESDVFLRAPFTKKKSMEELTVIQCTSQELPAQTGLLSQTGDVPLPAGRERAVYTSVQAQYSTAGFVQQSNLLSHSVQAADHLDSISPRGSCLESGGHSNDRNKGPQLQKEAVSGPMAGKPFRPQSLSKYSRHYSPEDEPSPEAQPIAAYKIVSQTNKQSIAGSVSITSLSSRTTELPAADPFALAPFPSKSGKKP

The values below come from ChEMBL document CHEMBL3991601, “The target landscape of clinical kinase drugs” (Science, 2017).

Activity calls are given as the source filed them. Unless noted, the calls are words filed in the database; no cut-off is given here.

Chain of Putative nucleoside diphosphate kinase (O60361 whole entry): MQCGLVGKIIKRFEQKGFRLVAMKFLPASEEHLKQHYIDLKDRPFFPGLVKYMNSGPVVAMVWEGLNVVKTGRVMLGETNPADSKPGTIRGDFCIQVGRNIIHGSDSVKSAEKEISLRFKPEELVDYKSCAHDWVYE
Chain of 5'-AMP-activated protein kinase subunit gamma-1 (P54619 whole entry): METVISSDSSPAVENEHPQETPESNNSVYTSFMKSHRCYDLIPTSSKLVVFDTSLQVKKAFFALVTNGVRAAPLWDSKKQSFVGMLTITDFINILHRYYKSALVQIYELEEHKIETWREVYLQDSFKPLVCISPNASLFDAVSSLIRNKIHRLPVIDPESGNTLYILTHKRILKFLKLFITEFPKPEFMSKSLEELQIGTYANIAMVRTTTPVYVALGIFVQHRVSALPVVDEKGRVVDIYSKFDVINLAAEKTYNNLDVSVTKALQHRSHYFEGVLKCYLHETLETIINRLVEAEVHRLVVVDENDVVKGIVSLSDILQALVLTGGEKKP

Broadly, the Kd is the concentration at which binding is half-saturated. For `COc1cc(Nc2ncc3c(n2)-c2ccc(Cl)cc2C(c2c(F)cccc2OC)=NC3)ccc1C(=O)O` [ALISERTIB], the Kd in assay [1] was > 30 µM (inactive).
For the molecule `NC(=O)Nc1cc(-c2cccc(F)c2)sc1C(=O)N[C@H]1CCCNC1` [AZD-7762], on Actin-related protein 3, the Kd is > 30 µM (inactive).
Turning to `COc1c(OCCCN2CCOCC2)ccc2c1N=C(NC(=O)c1cnc(N)nc1)N1CCN=C21` [COPANLISIB], the Kd in assay [2], in assay [3], in assay [4] and in assay [5] was > 30 µM (inactive) throughout.
Turning to `O=C(Nc1nc2cccc(-c3ccc(CN4CCS(=O)(=O)CC4)cc3)n2n1)C1CC1` [FILGOTINIB], the Kd in assay [2] was > 30 µM (inactive); in assay [3] it was > 30 µM (inactive); in assay [4], > 30 µM (inactive); in assay [5] it was 4.38 µM (active).
As to `COc1ncc(-c2ccc3nccc(-c4ccnnc4)c3c2)cc1NS(=O)(=O)c1ccc(F)cc1F` [OMIPALISIB], in assay [1], the Kd was > 30 µM (inactive).
With `Cc1nc(Nc2n[nH]c3c2CN(C(=O)N[C@H](CN(C)C)c2ccccc2)C3(C)C)c2sccc2n1` [PF-03758309], the Kd at Actin-related protein 3 is > 30 µM (inactive).
